{"source": "patent US11028084B2", "about": "“Selective inhibitors of gentotoxic steress-induced IKK/NF-κB pathways” (Max-Delbrück-Centrum für Molekulare Medizin in der …, priority 2016, dated 2021)", "format_in_all_cases": "cell-based, human", "key": {"p65 S536 phosphorylation": {"tested_on": "p65 S536 phosphorylation", "assay": "p65 S536 phosphorylation after γ-IR or etoposide, SDS-PAGE/WB, U2OS cells", "conditions": "γ-IR", "description": "(§1) FIG. 3: (A) U2OS cells were pre-treated with increasing concentrations of MW01 in duplicates in a 384 well plate. Then, cells were treated with etoposide, fixed and subjected to IF of p65. Spatial measurement of p65 cytosolic and nuclear localisation was used for calculation of p65 translocation rates. (B) U2OS cells were pre-treated with DMSO, MW01 and irradiated with γ-IR. After 90 min cells were lysed and subjected to SDS-PAGE/WB and EMSA. (C) Cells were pre-treated with different concentrations of MW01 as indicated, treated with γ-IR (C) or etoposide (D) and subjected to WB or EMSA, respectively. LDH in (C) represents the loading control.\nFIG. 14: (A) U2OS cells were pre-treated with different concentrations of olaparib prior to co-treatment with etoposide. Whole cell lysis was performed after 90 min and cleared lysates were used for WB with indicated antibodies. (B) U2OS cells were pre-treated with DMSO, olaparib or the ATM inhibitor Ku55933 and co-treated with etoposide. Cells were harvested after 45 min and subjected to SDS-PAGE/WB. Membranes were stained with the indicated antibodies. The experiment of (B) was performed simultaneously to the experiments of (A) and (E) to control functionality of olaparib in inhibiting PAR chain formation. (C) Densitometrical analyses of (A) and two further independent experiments done as shown in (A). (D) U2OS cells were pre-treated with the substances as indicated prior to irradiation. After 90 min mRNA was isolated, transcribed into cDNA and was used for expression analyses of the indicated genes using quantitative real-time PCR (qRT-PCR). (E) HepG2 cells were pre-treated with the PARP inhibitors olaparib, 3-AB and EB-47 prior to γ-irradiation. […]\nAfter transfer of proteins on PVDF membranes unspecific binding of antibodies was blocked by incubation of membranes in 5% skim milk powder in TBST buffer (or 3% BSA in TBST for phosphorylation-specific antibodies) for 1 h at RT. […] After three times of washing with TBST and once with PBS for 5 min, chemiluminescent photon emission was detected using a CCD camera system (Fusion Solo). […]"}, "[1]": {"tested_on": "genotoxic stress-induced NF-κB signaling", "assay": "Etoposide-induced p65 nuclear translocation, immunofluorescence / high content screening in U2OS cells", "description": "FIG. 2: U2OS cells were pre-treated and incubated with DMSO or MW01. DNA damage was induced by administration of etoposide. After 2 h cells were fixed, nuclei were stained with DAPI. p65 and phospho-H2AX, which is indicative for DNA DSB, were stained by immunofluorescence. Images were taken at a confocal Zeiss 710 LSM with a 40× oil objective.\nas §1\nGenotoxic stress was applied by ionizing irradiation of cells with a Cs137 source (0629 Irradiator, STS Braunschweig), or by inhibition of the topoisomerase II enzyme by administration of etoposide at concentrations between 20-50 μM for 2 h.\nFor immunofluorescence staining 0.95×10^5 cells were seeded in 6 well plates onto autoclaved cover slips. Cellular confluency dictated to beginning of the experiment (2-3 days from seeding). After conduction of experiments cells were washed with PBS and fixed with 4% PFA/double-distilled H2O (ddH2O) for 10 min at RT. Following two additional washing steps cells were incubated with a solution containing 0.12% glycine/0.2% saponin in PBS for 10 min and then blocked with a solution containing 10% FCS/0.2% saponin in PBS for 1 h. Primary antibody incubation was performed overnight at 4° C. (1:500 diluted in 0.2% saponin in PBS). The next day, cover slips were washed five times with a solution containing 0.2% saponin in PBS. Fluorophor-coupled secondary antibodies (1:1000 diluted in 0.2% saponin in PBS) were incubated for 1 h (hour) at RT. Nuclei were stained using 0.2 mg/ml DAPI in PBS for […] or by directly mounting with DAPI/Mowiol. Finally, the cover slips were washed five times with 0.2% saponin in PBS and two times with ddH2O. Confocal microscopy was performed using a Zeiss 710 LSM with a 40× or a 63× oil objective.\nIn order to identify specific inhibitors of the DNA damage-induced NF-κB pathway, a differential screening assay was designed. The primary screening for inhibitors of genotoxic stress-induced NF-κB signaling utilised a library of compounds from ChemBioNet and donated compounds of academic chemists. DNA damage was applied by application of etoposide. All compounds which inhibited p65 nuclear translocation were taken for subsequent counter screening. For the counter screening administration of TNFα was used to induce canonical NF-κB signaling. All substances inhibiting TNFα-induced canonical NF-κB activation were discarded from the list of potential DNA damage-pathway specific substances."}, "[2]": {"tested_on": "TNFα-induced canonical NF-κB activation", "assay": "TNFα-induced p65 nuclear translocation (counter screening), U2OS cells", "conditions": "different concentrations", "description": "FIG. 4: (A) U2OS cells were pre-treated with increasing concentrations of MW01 in triplicates in a 384 well plate. Then, cells were treated with TNFα, fixed and subjected to IF staining of p65. Spatial measurement of p65 cytosolic and nuclear signals was used for the calculation of p65 translocation rates. (B) U2OS cells were pre-treated with MW01 at concentrations of 10 or 20 μM and stimulated with TNFα. Cell lysates were subjected to SDS-PAGE/WB. (C) HEK293 cells were pre-treated with DMSO or MW01 followed by administration of etoposide or TNFα. Cell lysates were used for EMSA.\nFor the activation of the canonical NF-κB pathway cells were treated with recombinant human TNFα (10 ng/ml) or IL-1β (10 ng/ml) for 20-30 min at 37° C.\nFor immunofluorescence staining 0.95×10^5 cells were seeded in 6 well plates onto autoclaved cover slips. Cellular confluency dictated to beginning of the experiment (2-3 days from seeding). After conduction of experiments cells were washed with PBS and fixed with 4% PFA/double-distilled H2O (ddH2O) for 10 min at RT. Following two additional washing steps cells were incubated with a solution containing 0.12% glycine/0.2% saponin in PBS for 10 min and then blocked with a solution containing 10% FCS/0.2% saponin in PBS for 1 h. Primary antibody incubation was performed overnight at 4° C. (1:500 diluted in 0.2% saponin in PBS). […]"}}, "note": "Entries after “also recorded” stand apart in the source; their conditions may differ.", "data": [{"smiles": "COc1ccc2c(c1OC)c(=O)n1c3ccc(O)cc3c3ccnc2c31", "note": "[MW01, 12-hydroxy-6,7-dimethoxy-8H-benzo[c]indolo[3,2,1-ij][1,5]naphthyridin-8-one]", "values": [{"measurement": "p65 S536 phosphorylation following γ-IR", "setting": "p65 S536 phosphorylation", "result": "concentration dependent inhibition of p65 S536 phosphorylation"}, {"measurement": "IC50", "setting": "[1]; Homo sapiens, U2OS, etoposide-induced p65 nuclear translocation, high content screening", "result": 460, "unit": "nM"}, {"measurement": "calculated Hill coefficient", "setting": "[1]; IC50 determination assay", "result": "−0.9"}, {"measurement": "percentage in activity change (as recorded in IC50 determination assay)", "setting": "[1]; etoposide", "result": 120, "unit": "%"}, {"measurement": "concentration sufficient for maximal inhibition of p65 nuclear translocation", "setting": "[1]; etoposide stimulation, U2OS", "result": 5, "unit": "µM"}, {"measurement": "inhibition of etoposide-induced p65 nuclear translocation / NF-κB activation", "setting": "[1]; etoposide, U2OS", "result": "inhibited NF-κB activation in response to etoposide stimulation; also recorded: inhibited the nuclear translocation of p65 upon etoposide stimulation in a concentration dependent manner"}, {"measurement": "effect on p65 nuclear translocation / NF-κB activation after TNFα stimulation", "setting": "[2]", "result": "did not interfere with p65 nuclear translocation rates"}]}]}
